Reference: patent US4256765A, “Novel hydroxamic acid compounds, method for preparation thereof and medicaments containing such compounds” (priority 1978, dated 1981)

Columns and labels:
[1] = test system: Salmonela typhimurium TA-98 and TA-100; assay: Mutagenic activity in microbial tests; assay type: cell-based, Salmonella typhimurium
Experimental: The screening of mutagenicity was carried out according to Ames test [Refer to Ames B. N. et al.: Proc: Natl. Acad. Sci. U.S.A., 72, 979-983 (1975)] which is now widely utilized all over the world as an examination for detection of mutagenicity.
Using the strain of Salmonela typhimurium TA-98 and TA-100 as the test bacteria, the mutageic activity was examined for the test compounds untreated with S-9 (9,000×g supernatant fraction of the rat liver homogenate induced with PCB) and the test compounds treated with S-9, respectively. The examined concentration of the test compounds was up to 40,000 μg/ml. Dimethyl sulfoxide (DMSO) was used as solvent.
The result of examination was judged to be positive, when the number of reverse mutation colony was twice comparing with the control group and the positive correlation between dosage and mutagenic activity of the test compound was recognized.

[2] = clinical study of urolithiasis; cited from earlier work
[3] = biological target: T1, Urease extracted and purified from sword bean (Canavalia gladiata, UniProt A0AAN9R4W0); assay: Urease inhibitory activity (I50), method of Kobashi et al.; assay type: biochemical; settings: read-out: Urease-inhibitory activity I50
T1 construct: nickel homohexamer by analogy with jack bean urease
Experimental: (1) Measurement of urease inhibitory activity of test compounds
Urease was extracted and purified from sword bean and molar concentrations of the test compounds causing 50% inhibition of urease activity (I50) were determined by the method of Kobashi et al. [Refer to Biochim, Biophys. Acta 227, 429-441 (1971).]

[4] = Urinary excretion in rats; assay type: in vivo, SD strain male rats; settings: rat, po; 100 mg/Kg orally, SD male rats, urine excreted within 24 hours; read-out: Urinary excretion (%) (mean value ± S. E.)
Experimental: (2) Measurement of urinary excretion in rats
100 mg/Kg of the test compounds were administered orally to the SD strain male rats weighing about 300 g, and urine specimens excreted within 24 hours were collected by cross-over method. Amounts of the test compounds in urine were determined according to the method of Kobashi et al. [Refer to Yakugaku Zasshi 93 (12), 1564-1572 (1973); J. Biochem. 83, 287-293 (1973).]

[5] = test system: Proteus mirabilis (OM-1); assay: Inhibitory effect on alkalization of urine; assay type: cell-based; settings: for pH value (mean value ± S. E.) 8 hours after inoculation: normal human urine, Proteus mirabilis 2.75×10^5 cells/ml, 37° C.; for inhibition of the alkalization of urine (in words): Proteus mirabilis (OM-1) inoculated to normal human urine
Experimental: (§1) To 18 ml of normal human urine was added each test compound to make 10^-3 M and 2×10^-4 M test solution in a final concentration.
(§2) On the other hand, distilled water was added to 18 ml of normal human urine instead of the test compound to make a blank solution.
(§3) To the solution was inoculated intact Proteus mirabilis (OM-1) to make a cell suspension of 2.75×10^5 cells/ml and harvested at 37° C. Before inoculation and at 8 hours after inoculation, the pH values of the solution were measured.

[6] = test system: Proteus mirabilis (OM-1); assay: Inhibitory effect on calculus formation in urine; assay type: cell-based; settings: for inhibition of the calculus formation in urine (in words): Proteus mirabilis (OM-1) inoculated to normal human urine; for inhibition at 200 µM / inhibition at 1000 µM: Proteus mirabilis, 8 h, normal human urine, read-out: Inhibitory rate of calculus formation (%) (mean value ± S. E.) 8 hours after inoculation; for inhibition at 200 µM: 2 × 10^-4 M test compound; for inhibition at 1000 µM: 10^-3 M test compound
Experimental: as §1, §2, §3
Inhibitory rate of calculi formation was calculated by measuring the weight of formed calculi.

[7] = Acute toxicity (LD50); assay type: in vivo; settings: for acute toxicity (in words): rats; for LD50: rat, in vivo
Experimental: The test compounds were administered orally to SD strain male rats weighing about 270 g and SD strain female rats weighing about 170 g.

T1 sequence (A0AAN9R4W0 entry or part of it): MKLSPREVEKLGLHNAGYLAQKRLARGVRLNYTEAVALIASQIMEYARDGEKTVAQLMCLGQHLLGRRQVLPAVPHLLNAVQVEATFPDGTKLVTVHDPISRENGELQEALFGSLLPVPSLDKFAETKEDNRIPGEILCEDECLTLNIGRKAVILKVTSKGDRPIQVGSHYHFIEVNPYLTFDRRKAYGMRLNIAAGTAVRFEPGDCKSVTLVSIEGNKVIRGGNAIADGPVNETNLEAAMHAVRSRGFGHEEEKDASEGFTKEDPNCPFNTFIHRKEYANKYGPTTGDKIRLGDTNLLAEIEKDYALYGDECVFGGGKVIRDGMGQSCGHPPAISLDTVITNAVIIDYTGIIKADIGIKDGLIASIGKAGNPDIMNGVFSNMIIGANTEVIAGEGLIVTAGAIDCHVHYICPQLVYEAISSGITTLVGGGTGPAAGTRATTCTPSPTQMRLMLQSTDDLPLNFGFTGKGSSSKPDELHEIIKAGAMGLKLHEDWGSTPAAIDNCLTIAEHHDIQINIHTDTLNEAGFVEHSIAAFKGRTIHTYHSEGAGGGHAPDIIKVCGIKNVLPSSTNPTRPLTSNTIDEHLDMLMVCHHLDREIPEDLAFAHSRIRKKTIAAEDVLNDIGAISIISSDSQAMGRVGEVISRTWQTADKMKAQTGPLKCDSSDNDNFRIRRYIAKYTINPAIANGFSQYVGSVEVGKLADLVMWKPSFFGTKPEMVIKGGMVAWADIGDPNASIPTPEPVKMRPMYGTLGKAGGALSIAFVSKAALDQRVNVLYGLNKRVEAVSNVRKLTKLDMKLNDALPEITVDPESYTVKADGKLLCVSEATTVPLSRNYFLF

In the case of `CC(=O)NO` [CH3 CONHOH, Acetohydroxamic acid], the “mutagenic activity (in words)” value [1] is given as “have the mutagenic activity” and the “decreasing the amount of ammonia in urine and preventing the alkalization of urine (in words)” value [2] is given as “effective”.
For `O=C(CNC(=O)c1ccco1)NO` [2-(2-furoylamino)-acetohydroxamic acid], the “mutagenic activity (in words)” value [1] was “show mutagenecity”.
In the case of `CC(C)(C)C(=O)NCC(=O)NO` [Compound A, N-(pivaloyl)-glycinohydroxamic acid], the IC50 [3] is reported as 4.38 µM, the dose excreted at 24 h [4] is reported as 14.6 ± 1.82% and the “pH value (mean value ± S. E.) 8 hours after inoculation” value (“pH value (mean value ± S. E.) 8 hours” for short) ([5]; 2 × 10^-4 M test compound) is reported as 8.41 ± 0.007. The “pH value (mean value ± S. E.) 8 hours” value ([5]; 10^-3 M test compound) was 7.33 ± 0.09, the “inhibition of the alkalization of urine (in words)” value [5] was “inhibited the alkalization of urine” and the “inhibition of the calculus formation in urine (in words)” value [6] was “inhibited”. For the same compound, the inhibition at 200 µM [6] was 50 ± 5.2%, the inhibition at 1000 µM [6] was 82 ± 8.2% and the “acute toxicity (in words)” value ([7]; oral) was “low”. The LD50 ([7]; oral, SD male and female rats) was over 9000 mg/kg.
With `CCC(CC)C(=O)NCC(=O)NO` [Compound B, N-(2-ethyl-n-butyloyl)-glycinohydroxamic acid] the IC50 [3] was 0.79 µM, the dose excreted at 24 h [4] was 5.37 ± 0.852% and the “pH value (mean value ± S. E.) 8 hours” value ([5]; 2 × 10^-4 M test compound) was 7.24 ± 0.04. For the same compound, the “pH value (mean value ± S. E.) 8 hours” value ([5]; 10^-3 M test compound) was 6.14 ± 0.01, the “inhibition of the alkalization of urine (in words)” value [5] was “inhibited the alkalization of urine” and the “inhibition of the calculus formation in urine (in words)” value [6] was “inhibited”. For the same compound, the inhibition at 200 µM [6] was 93.7 ± 1.6%, the inhibition at 1000 µM [6] was 95.7% and the “acute toxicity (in words)” value ([7]; oral) was “low”. It also gave an LD50 ([7]; po) of over 9000 mg/kg.
With `COc1ccc(C(=O)NCC(=O)NO)cc1` [2-(para-methoxybenzamide)-acetohydroxamic acid] the “mutagenic activity (in words)” value [1] was “show mutagenecity”.
For `CC(=O)Nc1cccc(C(=O)NCC(=O)NO)c1` [2-(meta-acetylaminobenzamide)-acetohydroxamic acid], the “mutagenic activity (in words)” value [1] was “show mutagenecity”.
In the case of `CCC(C)C(=O)NCC(=O)NO` (racemic) [Compound C, N-(DL-2-methyl-n-butyloyl)-glycinohydroxamic acid], the IC50 [3] is reported as 1.29 µM, the dose excreted at 24 h [4] is reported as 9.25 ± 2.16% and the “acute toxicity (in words)” value ([7]; oral) is reported as “low”. For the same compound, the LD50 ([7]; oral, SD male and female rats) was over 9000 mg/kg.
With `O=C(CNC(=O)c1ccc(Cl)cc1)NO` [Benurestat, 2-(para-chlorobenzamide)-acetohydroxamic acid] the “mutagenic activity (in words)” value [1] was “have the mutagenic activity”.
With `COc1cccc(C(=O)NCC(=O)NO)c1` [2-(meta-methoxybenzamide)-acetohydroxamic acid] the “mutagenic activity (in words)” value [1] was “show mutagenecity”.
